How the values were obtained:
[1] = system: C. parapsilosis; test: Modified Robbins device (MRD) in vitro colonization model, Candida parapsilosis in biofilm on silicone catheter segments; type: cell-based; conditions: for 24 h Growth after 15 Minutes in Drug Mean CFU C. Parapsilosis / suppression / eradication / regrowth of C. parapsilosis embedded in biofilm, in words: 15 min exposure; for 24 h Growth after 15 Minutes in Drug Mean CFU C. Parapsilosis: then re-incubation in broth for 24 h; for suppression / eradication / regrowth of C. parapsilosis embedded in biofilm, in words: with or without 24 h re-incubation in broth; for 15 Minutes in Drug Mean CFU C. Parapsilosis: cultured immediately after 15 min exposure at 37° C.
Text: (§1) The in vitro model utilized a modified Robbins device (MRD) to study the colonization of catheter segments with organisms embedded in biofilm. The modified Robbins device has been previously described (Nickel et al., 1991; Evans et al., 1987, see also U.S. Pat. No. 5,362,754) and is constructed from an acrylic block, 42 cm long with a lumen of 2×10 mm. It consists of 25 evenly spaced specimen plugs, each connected to a silicone catheter segment (Allegiance Healthcare Corp., McGaw Park, Ill.) whose anterior surface (0.3 cm^2) comes in conta-ct with the flushed infusate. After placing the catheter segments in the specimen plug of the modified Robbins device, the entire apparatus was gas sterilized using ethylene oxide. A 500 ml 5% dextrose in water (5% D5/W) was connected to the modified Robbins device through an intravenous tubing administration set and was subsequently infected with an innoculum of 10^8 CFU/ml of methicillin-resistant Staphylococcus aureus (MRSA), to produce an infected infusate at the concentration of 2×10^5 CFU/ml. The biofilm-producing S. aureus isolates were obtained from patients with CRBSI. In another series of experiments, 500 ml 5% D5/W bag was infected with a biofilm-producing C. parapsilosis using an inoculum of 10^5 CFU/ml to produce an infected infusate at a concentration of 2×10^2 CFU/ml of C. parapsilosis. The whole system was incubated at 37° C. and the infected infusate was flushed through the MRD using a peristaltic pump permitting the infusate to flow at the rate of 60 ml/hour for 8 hours. The modified Robbins device was left to incubate for a total of 18 hours (another 10 hours). Subsequently, the infected bag was removed and a 250 ml saline sterile bag which was infused through the MRD at 125 ml/hour for 2 hours in order to remove all free floating organisms. To insure biofilm formation, at least three catheter segments were randomly removed from the 25 evenly spaced catheter segments in the MRD and studied by scanning electron microscopy. This was repeated for every organism tested.
(§2) The remaining catheter segments were removed and each segment was placed in a tube containing 2 ml of one of the following broth solutions: (1) Mueller-Hinton broth (Becton Dickinson & Co., Cockeysville, Md.); (2) EDTA at a concentration of 30 mg/ml in broth (Abbott Laboratories, North Chicago, Ill.); (3) minocycline at 3 mg/ml in broth (Wyeth-Ayerst Laboratories, Collegeville, Pa.); (4) minocycline (3 mg/ml) and EDTA combination (M-EDTA) in broth; (5) 25% ethanol (ETOH) solution in broth; (6) minocycline at 3 mg/ml in 25% ethanol solution in broth; (7) EDTA 30 mg/ml in 25% ethanol solution in broth; and (8) M-EDTA in 25% ethanol solution in broth. The experiments were repeated in triplicate or quadruplicate, and during each experiment, 2-5 catheter segments were exposed to the same solution for only 15 minutes at 37° C. Subsequently, some of the catheter segments were immediately removed and cultured by scrape sonication. Other alternating catheter segments were removed, placed in broth (TSB), incubated for 24 hours, and then cultured by scrape sonication. This added step of re-incubating catheter segments in broth after the 15 minutes exposure was done to determine whether these agents suppressed the growth of organisms embedded in biofilm or eradicated them. The surface of the catheter segment that was exposed to the infected infusate was scraped with a sterile wooden applicator stick and placed, along with the stick, in a tube containing 0.5 ml of trypticase soy broth. The tubes were sonicated for five minutes; 0.1 ml of the sonicated broth solution in the tube was pipetted and plated over a blood agar plate, which was incubated at 37° for 24 hours. The agar plates were checked for any contaminants. The isolated organisms had to be of the same species and colonial morphology as the original organism used to infect the infusate.

[2] = system: MRSA; test: Silicone disk bioprosthetic colonization MRSA model; type: cell-based, Staphylococcus aureus; conditions: for suppression / eradication / regrowth of bioprosthetic MRSA colonization of silicone disks, in words / 1 hour in Drug Mean CFU ± std. error: 1 hour exposure; for suppression / eradication / regrowth of bioprosthetic MRSA colonization of silicone disks, in words: with or without 24 h incubation; for 1 hour in Drug Mean CFU ± std. error / 24 h Growth after 1 hour in Drug Mean CFU ± std. error: MRSA on silicone disks; for 1 hour in Drug Mean CFU ± std. error: up to 5,000 CFU/disk; for 24 h Growth after 1 hour in Drug Mean CFU ± std. error: exposure then 24 h reincubation in TSB
Experimental: (§3) On day 1, pieces of biofilm were prepared. Sterile (Ethylene Oxide Gas Sterilized) silicone disks were placed in 5 ml sterile snap top Falcon tubes and 0.5 ml of pooled plasma added. This was followed by incubation (while rocking) overnight at 37° C.
(§4) On day 2, the bacteria was added to form the biofilm. Using sterile plastic transfer pipettes, the plasma was suctioned out from the tubes and replaced with 0.5 ml of bacterial inoculum (50 ml of Mueller-Hinton broth containing 4-5 colonies of freshly grown bacteria). The tubes were incubated overnight at 37° C.
(§5) On day 3, a drug was added in an attempt to kill the bacteria. Before adding the drug, the pieces were washed in 0.5 ml of 0.9% saline in order to remove any planktonic bacteria. The tubes (containing the biofilm disks and saline) were placed in the incubator at 37° C. for 30 minutes. The saline was then pipetted out using sterile plastic transfer pipettes (taking care not to disturb the pieces too much). The silicone disks were then transferred to new 5 ml snap-top falcon tubes containing 0.5 ml of the drug solution to be tested. The drug solutions tested were as follows: (1) minocycline 3 mg/ml; (2) EDTA 30 mg/ml; (3) 25% ethanol solution; (4) EDTA 30 mg/ml in 25% ethanol; (5) minocycline 3 mg/ml in 25% ethanol; (6) minocycline 3 mg/ml with EDTA 30 mg/ml; and (7) triple combination of minocycline 3 mg/ml and EDTA 30 mg/ml in 25% ethanol solution. The disks were allowed to sit in the drug for 1 hour. The drug was then suctioned out using a plastic transfer pipette. The pieces were once again washed with 0.5 ml saline (added, and shaken for 30 seconds). The disks were then transferred to 15 ml snap-top falcon tubes containing 5 ml of 0.9% saline. The pieces were sonicated for 5 minutes, and then vortexed for 30 seconds. 100 microliters (μl) of the saline was then plated on a room temperature TSAII blood agar plate, and evenly spread using a sterile glass spreader. The plates were incubated overnight at 37° C.
(§6) For the 24 hour reincubation studies, pieces of biofilm were prepared the same exact way as the regular pieces. Before adding the drug, the pieces were washed in 0.5 ml of 0.9% saline in order to remove any planktonic bacteria. The tubes (now containing the biofilm disks and saline) were placed in the incubator at 37° C. for 30 minutes. The saline was then pipetted out using sterile plastic transfer pipettes (taking care not to disturb the pieces too much). The silicone disks were then transferred to new 5 ml snap-top falcon tubes containing 0.5 ml of the drug to be tested. […] The drug was then suctioned out using a plastic transfer pipette. The pieces were once again washed with 0.5 ml saline (added, and shaken for 30 seconds). The pieces were then transferred to new sterile 5 ml snap-top falcon tubes containing 0.5 ml of sterile trypticase soy broth (TSB) and then placed in the incubator at 37° C. overnight.
(§7) On day 4, colonies were counted and the results recorded. The colonies were hand counted, and counting was stopped at 100 colonies. Anything greater was considered >100 colonies. The counts were recorded, and multiplied by a factor of 50 because of the dilution factor between the 5 ml of saline containing the disk and the 100 μl that was plated onto the TSAII blood agar plates. The pieces were then sonicated (in the same TSB that grew overnight) for 5 minutes. 100 μl was then plated on TSAII blood agar plates, and the plates were placed in the incubator to grow overnight at 37° C.
(§8) On day 5, the regrowth pieces were counted. The colonies were hand counted, and counting was stopped at 100 colonies. Anything greater was considered >100 colonies. The counts were recorded, and multiplied by a factor of 5 because of the dilution factor between the 0.5 ml of TSB containing the disk and the 100 μl that was plated onto the TSAII blood agar plates.

[3] = system: methicillin-resistant Staphylococcus aureus (MRSA); test: Modified Robbins device (MRD) in vitro colonization model, MRSA in biofilm on silicone catheter segments; type: cell-based; conditions: for 24 h growth after 15 min in drug mean CFU MRSA / suppression / eradication / regrowth of MRSA embedded in biofilm, in words: 15 min exposure; for 24 h growth after 15 min in drug mean CFU MRSA: then re-incubation in broth for 24 h at 37° C.; for suppression / eradication / regrowth of MRSA embedded in biofilm, in words: with or without 24 h re-incubation in broth; for 15 minutes in Drug mean CFU MRSA: catheter segments cultured by scrape sonication immediately after 15 min exposure at 37° C., confluent growth counted as 500
Text: as §1, §2

[4] = system: Candida parapsilosis; test: Silicone disk bioprosthetic colonization Candida parapsilosis model; type: cell-based; conditions: for suppression / eradication of Candida parapsilosis growth on silicone disks, in words / 1 hour in Drug Mean CFU C. Parapsilosis: 1 hour exposure; for 1 hour in Drug Mean CFU C. Parapsilosis / 24 h Growth after 1 hour in Drug Mean CFU C. Parapsilosis: silicone disks; for 24 h Growth after 1 hour in Drug Mean CFU C. Parapsilosis: exposure then 24 h reincubation in TSB
Experimental: as §3, §4, §5, §6, §7, §8

[5] = system: organisms that colonize the lumen of the catheter; conditions: dwell time of 4-24 hours; cited from earlier work

| Compound | 24 h Growth after 15 Minutes in Drug Mean CFU C. Parapsilosis [1] | suppression / eradication / regrowth of C. parapsilosis embedded in biofilm, in words [1] | 15 Minutes in Drug Mean CFU C. Parapsilosis [1] | suppression / eradication / regrowth of bioprosthetic MRSA colonization of silicone disks, in words [2] | 1 hour in Drug Mean CFU ± std. error [2] | 24 h Growth after 1 hour in Drug Mean CFU ± std. error [2] | 24 h growth after 15 min in drug mean CFU MRSA [3] | suppression / eradication / regrowth of MRSA embedded in biofilm, in words [3] | 15 minutes in Drug mean CFU MRSA [3] | suppression / eradication of Candida parapsilosis growth on silicone disks, in words [4] | 1 hour in Drug Mean CFU C. Parapsilosis [4] | 24 h Growth after 1 hour in Drug Mean CFU C. Parapsilosis [4] | 24 h growth after 15 min in drug mean CFU MRSA ([3]; listed as 25% ethanol solution) | 15 minutes in Drug mean CFU MRSA ([3]; listed as 25% ethanol solution) | eradication of microbial organisms embedded in biofilm from catheter surfaces, in words [5] |
| --- | --- | --- | --- | --- | --- | --- | --- | --- | --- | --- | --- | --- | --- | --- | --- |
| CN(C)c1ccc(O)c2c1C[C@H]1C[C@H]3[C@H](N(C)C)C(O)=C(C(N)=O)C(=O)[C@@]3(O)C(O)=C1C2=O [3 mg/ml minocycline, minocycline] | 500.0 ± 0.0 CFU | failed to eradicate | 138.3 ± 111.8 CFU | failed to suppress | 5000.0 ± 0.0 CFU | 5000.0 ± 0.0 CFU | 308.3 ± 151.1 CFU | some decrease in colonization | 323.7 ± 199.0 CFU | failed to suppress or eradicate | 5000.0 ± 0.0 CFU | 5000.0 ± 0.0 CFU |  |  |  |
| CCO [25% EtOH in MHB, ethanol] | 142.9 ± 225.9 CFU | regrowth was noted | 0 CFU | failed to suppress | 2900.0 ± 722.8 CFU | 5000.0 ± 0.0 CFU | 500.0 ± 0.0 CFU |  | 138.0 ± 193.8 CFU | failed to completely suppress | 1933 ± 601.6 CFU | 3875.0 ± 618.3 CFU | 500 CFU | 138 CFU |  |
| O=C(O)CN(CCN(CC(=O)O)CC(=O)O)CC(=O)O [30 mg/ml EDTA, ethylenediamine-N,N,N′,N′,-tetraacetic acid] | 500.0 ± 0.0 CFU | failed to eradicate | 160 ± 78.8 CFU | failed to suppress | 5000.0 ± 0.0 CFU | 5000.0 ± 0.0 CFU | 500.0 ± 0.0 CFU | failed to eradicate | 479.6 ± 44.9 CFU | failed to suppress or eradicate | 5000.0 ± 0.0 CFU | 5000.0 ± 0.0 CFU |  |  |  |
| CN[C@H](CC(C)C)C(=O)N[C@H]1C(=O)N[C@@H](CC(N)=O)C(=O)N[C@H]2C(=O)N[C@H]3C(=O)N[C@H](C(=O)N[C@H](C(=O)O)c4cc(O)cc(O)c4-c4cc3ccc4O)[C@H](O)c3ccc(c(Cl)c3)Oc3cc2cc(c3O[C@@H]2O[C@H](CO)[C@@H](O)[C@H](O)[C@H]2O[C@H]2C[C@](C)(N)[C@H](O)[C@H](C)O2)Oc2ccc(cc2Cl)[C@H]1O [vancomycin alone, vancomycin] |  |  |  |  |  |  |  |  |  |  |  |  |  |  | failed to eradicate |

Source: patent publication US9078441B2, “Antimicrobial flush solutions” (Board of Regents, The University of Texas System, priority 2003, dated 2015)
